We go through 5 molecules from ChEMBL document CHEMBL4028801, “A multifactorial approach to hepatobiliary transporter assessment enables improved therapeutic compound development” (Toxicol Sci, 2013).

Data set [1] has as its target ATP-binding cassette sub-family C member 3 (Homo sapiens, UniProt O15438). Nature of the data set: Inhibition of human MRP3 overexpressed in Sf9 insect cell membrane vesicles assessed as uptake of [3H]-estradiol-17beta-D-glucuronide in presence of ATP and GSH measured after 10 mins by membrane vesicle transport assay. Format: ADME, cell-based.
Data set [2] concerns the target T1, ATP-binding cassette sub-family C member 4 (Homo sapiens, UniProt O15439).
T1 sequence (O15439 whole entry): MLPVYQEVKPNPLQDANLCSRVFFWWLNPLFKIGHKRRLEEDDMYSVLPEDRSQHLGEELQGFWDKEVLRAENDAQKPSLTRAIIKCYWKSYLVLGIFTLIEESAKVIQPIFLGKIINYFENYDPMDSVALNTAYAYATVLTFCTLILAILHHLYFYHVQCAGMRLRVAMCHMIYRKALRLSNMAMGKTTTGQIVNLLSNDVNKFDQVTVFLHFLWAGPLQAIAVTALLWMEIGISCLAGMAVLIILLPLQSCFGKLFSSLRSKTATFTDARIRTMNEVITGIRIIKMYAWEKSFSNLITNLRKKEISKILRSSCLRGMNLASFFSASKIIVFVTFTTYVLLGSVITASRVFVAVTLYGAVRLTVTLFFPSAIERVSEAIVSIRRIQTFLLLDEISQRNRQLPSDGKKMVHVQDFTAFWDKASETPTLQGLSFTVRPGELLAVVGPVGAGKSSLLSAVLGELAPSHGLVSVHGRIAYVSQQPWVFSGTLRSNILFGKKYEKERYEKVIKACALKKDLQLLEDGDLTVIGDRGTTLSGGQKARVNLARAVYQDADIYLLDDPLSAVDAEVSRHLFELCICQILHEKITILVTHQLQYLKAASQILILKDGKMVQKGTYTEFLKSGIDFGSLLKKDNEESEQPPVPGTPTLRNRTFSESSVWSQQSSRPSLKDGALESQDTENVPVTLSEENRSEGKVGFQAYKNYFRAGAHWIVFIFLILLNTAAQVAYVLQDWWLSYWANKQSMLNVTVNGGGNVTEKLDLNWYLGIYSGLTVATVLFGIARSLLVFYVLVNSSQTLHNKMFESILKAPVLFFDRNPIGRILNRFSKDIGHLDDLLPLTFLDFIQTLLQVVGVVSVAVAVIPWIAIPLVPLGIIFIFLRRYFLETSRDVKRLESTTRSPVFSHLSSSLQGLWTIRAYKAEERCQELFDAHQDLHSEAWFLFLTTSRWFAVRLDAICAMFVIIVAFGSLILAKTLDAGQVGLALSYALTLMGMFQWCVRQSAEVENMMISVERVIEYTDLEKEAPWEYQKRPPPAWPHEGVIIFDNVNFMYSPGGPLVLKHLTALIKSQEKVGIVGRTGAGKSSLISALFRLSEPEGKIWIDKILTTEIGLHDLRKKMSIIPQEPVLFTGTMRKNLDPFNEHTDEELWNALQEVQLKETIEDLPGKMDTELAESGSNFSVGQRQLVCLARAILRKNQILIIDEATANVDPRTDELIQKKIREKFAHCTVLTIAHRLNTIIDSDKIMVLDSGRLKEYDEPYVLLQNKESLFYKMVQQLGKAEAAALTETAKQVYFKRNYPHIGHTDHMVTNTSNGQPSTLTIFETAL
Nature of the data set: Inhibition of human MRP4 overexpressed in Sf9 cell membrane vesicles assessed as uptake of [3H]-estradiol-17beta-D-glucuronide in presence of ATP and GSH measured after 20 mins by membrane vesicle transport assay. In kind it is ADME, cell-based.

Data set [3] is described as follows: Ratio of drug concentration at steady state in human at 100 to 400 mg, po BID after 12 hrs to IC50 for human BSEP overexpressed in Sf9 insect cells. Format: ADME, organism-based. Particulars: in vivo.
The target in data set [4] is Bile salt export pump (Homo sapiens, UniProt O95342). Nature of the data set: Inhibition of human BSEP overexpressed in Sf9 cell membrane vesicles assessed as uptake of [3H]-taurocholate in presence of ATP measured after 15 to 20 mins by membrane vesicle transport assay. Format: ADME, cell-based.
Bile salt export pump, sequence (O95342 whole entry): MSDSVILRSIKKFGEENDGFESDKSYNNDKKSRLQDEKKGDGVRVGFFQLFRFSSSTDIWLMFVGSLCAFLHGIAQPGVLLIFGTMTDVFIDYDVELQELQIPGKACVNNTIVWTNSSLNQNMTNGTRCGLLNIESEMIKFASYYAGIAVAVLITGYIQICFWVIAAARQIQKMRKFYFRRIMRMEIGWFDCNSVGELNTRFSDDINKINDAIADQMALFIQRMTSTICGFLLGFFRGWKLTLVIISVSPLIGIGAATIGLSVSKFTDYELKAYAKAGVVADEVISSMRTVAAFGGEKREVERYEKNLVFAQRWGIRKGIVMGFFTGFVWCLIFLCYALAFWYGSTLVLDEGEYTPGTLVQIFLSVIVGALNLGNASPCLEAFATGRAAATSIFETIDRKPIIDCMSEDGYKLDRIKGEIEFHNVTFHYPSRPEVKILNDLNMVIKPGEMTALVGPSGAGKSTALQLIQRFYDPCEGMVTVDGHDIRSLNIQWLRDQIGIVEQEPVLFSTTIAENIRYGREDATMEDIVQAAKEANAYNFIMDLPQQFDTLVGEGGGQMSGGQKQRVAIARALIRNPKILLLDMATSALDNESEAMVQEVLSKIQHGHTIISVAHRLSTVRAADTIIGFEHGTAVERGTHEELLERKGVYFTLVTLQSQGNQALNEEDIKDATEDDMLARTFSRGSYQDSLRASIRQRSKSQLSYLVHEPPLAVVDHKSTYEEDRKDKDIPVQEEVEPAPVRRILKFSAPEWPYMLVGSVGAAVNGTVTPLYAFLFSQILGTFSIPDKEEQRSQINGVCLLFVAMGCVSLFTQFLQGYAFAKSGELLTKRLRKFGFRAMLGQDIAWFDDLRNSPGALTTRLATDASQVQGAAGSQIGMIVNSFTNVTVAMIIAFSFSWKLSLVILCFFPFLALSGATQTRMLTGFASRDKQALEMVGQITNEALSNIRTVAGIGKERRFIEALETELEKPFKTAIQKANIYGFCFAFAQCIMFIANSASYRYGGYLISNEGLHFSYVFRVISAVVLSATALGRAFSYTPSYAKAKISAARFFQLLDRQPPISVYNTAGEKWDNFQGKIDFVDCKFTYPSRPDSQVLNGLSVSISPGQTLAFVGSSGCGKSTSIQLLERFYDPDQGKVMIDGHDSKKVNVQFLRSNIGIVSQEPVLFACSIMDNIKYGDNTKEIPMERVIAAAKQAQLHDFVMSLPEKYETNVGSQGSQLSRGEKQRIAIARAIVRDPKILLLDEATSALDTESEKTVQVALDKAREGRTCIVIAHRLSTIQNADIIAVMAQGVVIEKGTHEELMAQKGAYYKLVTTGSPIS
Data set [5] concerns the target ATP-binding cassette sub-family C member 2 (Homo sapiens, UniProt Q92887). Nature of the data set: Inhibition of human MRP2 overexpressed in Sf9 cell membrane vesicles assessed as uptake of [3H]-estradiol-17beta-D-glucuronide in presence of ATP and GSH measured after 20 mins by membrane vesicle transport assay.
Data set [6] deals with Homo sapiens. Nature of the data set: Ratio of drug concentration at steady state in human at 0.25 to 20 mg, po after 24 hrs to IC50 for human MRP2 overexpressed in Sf9 insect cells. Particulars: in vivo. Format: ADME, organism-based.
Data set [7] concerns Homo sapiens. Nature of the data set: Ratio of drug concentration at steady state in human at 0.25 to 20 mg, po after 24 hrs to IC50 for human MRP4 overexpressed in Sf9 insect cells. Particulars: in vivo. Format: ADME, organism-based.
For data set [8], the system named is Homo sapiens. Nature of the data set: Ratio of drug concentration at steady state in human at 0.25 to 20 mg, po after 24 hrs to IC50 for human BSEP overexpressed in Sf9 insect cells. In kind it is ADME, organism-based. The note with it: in vivo.
The subject of data set [9] is Homo sapiens. Nature of the data set: Ratio of drug concentration at steady state in human at 0.25 to 20 mg, po after 24 hrs to IC50 for human MRP3 overexpressed in Sf9 insect cells. In kind it is ADME, organism-based. The note with it: in vivo.
Data set [10] in a line: AUC in human at 0.25 to 20 mg, po QD after 24 hrs. Particulars: in vivo. Format: ADME, organism-based.
Data set [11] can be described thus: Drug concentration at steady state in human at 0.25 to 20 mg, po QD after 24 hrs. In kind it is ADME, organism-based. The note with it: in vivo, read-out: Css.
The nature of data set [12]: Ratio of drug concentration at steady state in human at 50 mg, po QD after 24 hrs to IC50 for human MRP3 overexpressed in Sf9 insect cells. Format: ADME, organism-based. Particulars: in vivo.
Data set [13] is described as follows: AUC in human at 50 mg, po QD after 24 hrs. Format: ADME, organism-based. Also on record: dose 50 mg, time < 24 hr, route oral. Particulars: in vivo.
Data set [14] in a line: Ratio of drug concentration at steady state in human at 50 mg, po QD after 24 hrs to IC50 for human MRP4 overexpressed in Sf9 insect cells. In kind it is ADME, organism-based. Particulars: in vivo.
Data set [15] can be described thus: Ratio of drug concentration at steady state in human at 50 mg, po QD after 24 hrs to IC50 for human BSEP overexpressed in Sf9 insect cells. Format: ADME, organism-based. The note with it: in vivo.
A short description of data set [16]: Drug concentration at steady state in human at 50 mg, po QD after 24 hrs. The note with it: in vivo, read-out: Css. Format: ADME, organism-based.
The nature of data set [17]: Ratio of drug concentration at steady state in human at 50 mg, po QD after 24 hrs to IC50 for human MRP2 overexpressed in Sf9 insect cells. In kind it is ADME, organism-based. The note with it: in vivo.
Data set [18] is described as follows: AUC in human at 250 to 500 mg, po QD after 24 hrs. In kind it is ADME, organism-based. The note with it: in vivo.
A short description of data set [19]: Drug concentration at steady state in human at 100 mg, po QD after 24 hrs. Format: ADME, organism-based. Particulars: in vivo, read-out: Css.
The subject of data set [20] is Homo sapiens. Nature of the data set: Ratio of drug concentration at steady state in human at 100 mg, po after 24 hrs to IC50 for human BSEP overexpressed in Sf9 insect cells. The note with it: in vivo. In kind it is ADME, organism-based.
A short description of data set [21]: AUC in human at 100 mg, po QD after 24 hrs. Format: ADME, organism-based. Also noted: time < 24 hr, dose 100 mg, route oral. The note with it: in vivo.

Bounds are passed on as bounds.

ATP-binding cassette sub-family C member 2, sequence (Q92887 whole entry): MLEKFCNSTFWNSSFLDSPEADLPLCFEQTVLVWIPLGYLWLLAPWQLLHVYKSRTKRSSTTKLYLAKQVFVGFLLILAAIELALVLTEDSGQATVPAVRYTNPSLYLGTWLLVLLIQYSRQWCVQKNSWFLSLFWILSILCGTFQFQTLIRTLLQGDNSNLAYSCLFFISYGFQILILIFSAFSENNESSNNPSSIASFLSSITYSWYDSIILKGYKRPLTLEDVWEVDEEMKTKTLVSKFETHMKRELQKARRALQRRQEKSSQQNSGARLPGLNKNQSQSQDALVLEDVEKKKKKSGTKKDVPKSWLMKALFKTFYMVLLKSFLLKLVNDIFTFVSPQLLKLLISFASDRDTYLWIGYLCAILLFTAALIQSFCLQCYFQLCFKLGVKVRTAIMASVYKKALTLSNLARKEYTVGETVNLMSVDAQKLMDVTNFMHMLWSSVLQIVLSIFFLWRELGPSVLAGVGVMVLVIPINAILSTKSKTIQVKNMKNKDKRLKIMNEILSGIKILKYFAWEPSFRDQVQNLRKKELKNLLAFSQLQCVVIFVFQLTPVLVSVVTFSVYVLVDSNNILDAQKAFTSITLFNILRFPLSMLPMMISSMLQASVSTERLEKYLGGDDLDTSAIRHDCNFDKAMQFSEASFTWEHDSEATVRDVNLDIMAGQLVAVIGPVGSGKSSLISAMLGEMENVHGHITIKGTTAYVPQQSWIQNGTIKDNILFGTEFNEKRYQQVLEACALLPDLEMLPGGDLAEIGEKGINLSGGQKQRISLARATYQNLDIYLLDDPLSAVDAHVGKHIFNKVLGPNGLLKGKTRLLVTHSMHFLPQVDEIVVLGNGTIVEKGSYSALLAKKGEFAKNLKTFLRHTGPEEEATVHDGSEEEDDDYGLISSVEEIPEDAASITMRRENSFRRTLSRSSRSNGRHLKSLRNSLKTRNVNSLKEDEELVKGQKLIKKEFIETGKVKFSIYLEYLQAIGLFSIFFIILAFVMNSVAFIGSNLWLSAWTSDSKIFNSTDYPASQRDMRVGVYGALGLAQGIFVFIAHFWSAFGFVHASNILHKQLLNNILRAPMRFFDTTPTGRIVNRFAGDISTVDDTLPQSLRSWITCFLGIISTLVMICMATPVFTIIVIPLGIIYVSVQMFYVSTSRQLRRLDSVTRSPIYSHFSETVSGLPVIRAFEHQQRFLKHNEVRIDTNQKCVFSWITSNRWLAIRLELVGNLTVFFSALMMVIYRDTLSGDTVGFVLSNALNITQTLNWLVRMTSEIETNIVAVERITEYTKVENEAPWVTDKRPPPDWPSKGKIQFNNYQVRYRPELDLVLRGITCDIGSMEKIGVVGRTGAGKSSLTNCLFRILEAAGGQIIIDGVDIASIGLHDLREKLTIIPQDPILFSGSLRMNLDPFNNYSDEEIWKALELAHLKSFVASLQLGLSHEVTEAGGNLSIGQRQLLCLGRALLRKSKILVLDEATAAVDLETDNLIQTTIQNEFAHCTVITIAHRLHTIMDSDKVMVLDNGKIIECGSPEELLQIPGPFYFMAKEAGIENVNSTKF
ATP-binding cassette sub-family C member 3, sequence (O15438 whole entry): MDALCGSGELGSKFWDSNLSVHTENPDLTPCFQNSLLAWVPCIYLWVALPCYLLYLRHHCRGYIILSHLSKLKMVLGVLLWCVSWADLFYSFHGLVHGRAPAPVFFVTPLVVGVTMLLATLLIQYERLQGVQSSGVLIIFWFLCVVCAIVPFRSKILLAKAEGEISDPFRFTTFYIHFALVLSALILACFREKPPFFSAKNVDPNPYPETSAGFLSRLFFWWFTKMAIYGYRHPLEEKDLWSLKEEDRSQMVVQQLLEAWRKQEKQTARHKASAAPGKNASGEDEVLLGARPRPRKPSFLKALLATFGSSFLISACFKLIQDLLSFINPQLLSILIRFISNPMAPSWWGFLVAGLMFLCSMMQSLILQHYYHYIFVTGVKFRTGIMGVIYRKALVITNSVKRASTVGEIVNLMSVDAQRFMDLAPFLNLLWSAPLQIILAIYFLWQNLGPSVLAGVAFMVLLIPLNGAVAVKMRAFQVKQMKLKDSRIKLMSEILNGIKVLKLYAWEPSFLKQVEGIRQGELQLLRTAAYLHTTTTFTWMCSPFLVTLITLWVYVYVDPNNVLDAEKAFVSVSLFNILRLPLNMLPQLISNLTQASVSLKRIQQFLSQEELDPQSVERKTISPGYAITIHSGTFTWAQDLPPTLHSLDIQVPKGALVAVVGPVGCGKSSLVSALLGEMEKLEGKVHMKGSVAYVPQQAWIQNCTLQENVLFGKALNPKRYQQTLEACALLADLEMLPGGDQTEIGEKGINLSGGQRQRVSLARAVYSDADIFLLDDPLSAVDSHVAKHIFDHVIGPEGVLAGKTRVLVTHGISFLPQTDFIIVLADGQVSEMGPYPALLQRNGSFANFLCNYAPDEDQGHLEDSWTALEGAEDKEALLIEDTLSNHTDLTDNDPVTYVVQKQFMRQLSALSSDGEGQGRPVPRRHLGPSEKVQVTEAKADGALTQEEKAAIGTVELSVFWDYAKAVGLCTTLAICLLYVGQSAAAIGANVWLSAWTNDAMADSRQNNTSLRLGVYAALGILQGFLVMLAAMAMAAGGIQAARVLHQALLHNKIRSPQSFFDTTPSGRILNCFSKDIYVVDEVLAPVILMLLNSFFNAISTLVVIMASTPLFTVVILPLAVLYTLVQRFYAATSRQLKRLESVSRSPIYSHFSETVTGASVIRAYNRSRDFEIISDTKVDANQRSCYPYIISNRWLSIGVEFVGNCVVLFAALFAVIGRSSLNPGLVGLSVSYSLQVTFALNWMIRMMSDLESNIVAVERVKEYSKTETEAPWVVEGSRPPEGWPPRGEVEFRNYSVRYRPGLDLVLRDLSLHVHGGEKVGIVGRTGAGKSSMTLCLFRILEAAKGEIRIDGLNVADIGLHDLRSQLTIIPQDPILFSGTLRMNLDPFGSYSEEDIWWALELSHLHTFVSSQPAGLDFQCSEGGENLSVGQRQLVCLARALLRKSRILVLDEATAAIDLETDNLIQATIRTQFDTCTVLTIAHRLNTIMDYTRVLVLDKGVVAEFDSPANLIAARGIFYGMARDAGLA

The term IC50 denotes the midpoint of a concentration-inhibition curve. Consider `COCC1=C(C(=O)OC(C)OC(=O)OC(C)C)N2C(=O)[C@@H](NC(=O)/C(=N\OC)c3csc(N)n3)[C@H]2SC1` (stereo not given in full) [CEFPODOXIME PROXETIL], for which the IC50 in [1] was > 133 µM; in data set [2], > 133 µM; in [4], 81.7 µM; in data set [5], > 133 µM. Further, the Ratio in [3] is on record as 0.022.

As a reminder, the AUC is concentration integrated over time. For `CO[C@H]1C[C@@H]2CC[C@@H](C)[C@@](O)(O2)C(=O)C(=O)N2CCCC[C@H]2C(=O)O[C@H]([C@H](C)C[C@@H]2CC[C@@H](OCCO)[C@H](OC)C2)CC(=O)[C@H](C)/C=C(\C)[C@@H](O)[C@@H](OC)C(=O)[C@H](C)C[C@H](C)/C=C/C=C/C=C/1C` [EVEROLIMUS], the IC50 was 84 µM in data set [1], 95 µM in data set [2], 2 µM in data set [4] and 11.3 µM in data set [5]. In addition, the Ratio in data set [6] stood at 0.002; in data set [7], 0; in data set [8], 0.012; in data set [9] it was 0. This molecule also yielded an AUC at 24 h in data set [10] of 0.561 µM·h. The concentration at 24 h in data set [11] was determined as 23 nM.

On to `CC(/C=C1\SC(=S)N(CC(=O)O)C1=O)=C\c1ccccc1`, for which the Ratio in data set [12] is recorded as 0.018; in [14], 0.128; in data set [15] it was 0.01; in data set [17], 0.01. The IC50 was determined as 45.8 µM in data set [1], 6.5 µM in data set [2], 36.8 µM in [4] and 84.4 µM in data set [5]. Moreover, the AUC at 24 h in [13] stood at 20 µM·h. Moreover, the concentration at 24 h in data set [16] was found to be 835 nM.

Take `COc1cc2ncnc(Nc3ccc(F)c(Cl)c3)c2cc1OCCCN1CCOCC1` [GEFITINIB]: the IC50 in [1] and in data set [5] was > 133 µM throughout. The same molecule had an AUC at 24 h in data set [18] of 5.38 µM·h.

As for `COCC(=O)O[C@]1(CCN(C)CCCc2nc3ccccc3[nH]2)CCc2cc(F)ccc2[C@@H]1C(C)C.Cl`, the IC50 is > 133 µM in [1], > 133 µM in [2], 43.8 µM in data set [4] and > 133 µM in [5]. For the same molecule, the concentration at 24 h in [19] came to 735 nM. The Ratio in data set [20] was found to be 0.017. This molecule gave an AUC at 24 h in [21] of 17.6 µM·h.
